Measured values: ChEMBL document CHEMBL6153174, “Design and Synthesis of Novel Deazapurine DNMT 1 Inhibitors with In Vivo Efficacy in DLBCL” (J Med Chem, 2025)
Activity calls are given as the source filed them. The rule behind the calls is not given here.

Legend:
[1] = molecular target: T1, DNA (cytosine-5)-methyltransferase 1 (Homo sapiens, UniProt P26358); assay: Inhibition of DNMT1 (unknown origin) at 5 uM preincubated for 15 mins followed by substrate and [3H-SAM] addition and measured after 60 mins by microbeta analysis relative to control; conditions: time 75.0 min
T1 sequence (P26358 whole entry): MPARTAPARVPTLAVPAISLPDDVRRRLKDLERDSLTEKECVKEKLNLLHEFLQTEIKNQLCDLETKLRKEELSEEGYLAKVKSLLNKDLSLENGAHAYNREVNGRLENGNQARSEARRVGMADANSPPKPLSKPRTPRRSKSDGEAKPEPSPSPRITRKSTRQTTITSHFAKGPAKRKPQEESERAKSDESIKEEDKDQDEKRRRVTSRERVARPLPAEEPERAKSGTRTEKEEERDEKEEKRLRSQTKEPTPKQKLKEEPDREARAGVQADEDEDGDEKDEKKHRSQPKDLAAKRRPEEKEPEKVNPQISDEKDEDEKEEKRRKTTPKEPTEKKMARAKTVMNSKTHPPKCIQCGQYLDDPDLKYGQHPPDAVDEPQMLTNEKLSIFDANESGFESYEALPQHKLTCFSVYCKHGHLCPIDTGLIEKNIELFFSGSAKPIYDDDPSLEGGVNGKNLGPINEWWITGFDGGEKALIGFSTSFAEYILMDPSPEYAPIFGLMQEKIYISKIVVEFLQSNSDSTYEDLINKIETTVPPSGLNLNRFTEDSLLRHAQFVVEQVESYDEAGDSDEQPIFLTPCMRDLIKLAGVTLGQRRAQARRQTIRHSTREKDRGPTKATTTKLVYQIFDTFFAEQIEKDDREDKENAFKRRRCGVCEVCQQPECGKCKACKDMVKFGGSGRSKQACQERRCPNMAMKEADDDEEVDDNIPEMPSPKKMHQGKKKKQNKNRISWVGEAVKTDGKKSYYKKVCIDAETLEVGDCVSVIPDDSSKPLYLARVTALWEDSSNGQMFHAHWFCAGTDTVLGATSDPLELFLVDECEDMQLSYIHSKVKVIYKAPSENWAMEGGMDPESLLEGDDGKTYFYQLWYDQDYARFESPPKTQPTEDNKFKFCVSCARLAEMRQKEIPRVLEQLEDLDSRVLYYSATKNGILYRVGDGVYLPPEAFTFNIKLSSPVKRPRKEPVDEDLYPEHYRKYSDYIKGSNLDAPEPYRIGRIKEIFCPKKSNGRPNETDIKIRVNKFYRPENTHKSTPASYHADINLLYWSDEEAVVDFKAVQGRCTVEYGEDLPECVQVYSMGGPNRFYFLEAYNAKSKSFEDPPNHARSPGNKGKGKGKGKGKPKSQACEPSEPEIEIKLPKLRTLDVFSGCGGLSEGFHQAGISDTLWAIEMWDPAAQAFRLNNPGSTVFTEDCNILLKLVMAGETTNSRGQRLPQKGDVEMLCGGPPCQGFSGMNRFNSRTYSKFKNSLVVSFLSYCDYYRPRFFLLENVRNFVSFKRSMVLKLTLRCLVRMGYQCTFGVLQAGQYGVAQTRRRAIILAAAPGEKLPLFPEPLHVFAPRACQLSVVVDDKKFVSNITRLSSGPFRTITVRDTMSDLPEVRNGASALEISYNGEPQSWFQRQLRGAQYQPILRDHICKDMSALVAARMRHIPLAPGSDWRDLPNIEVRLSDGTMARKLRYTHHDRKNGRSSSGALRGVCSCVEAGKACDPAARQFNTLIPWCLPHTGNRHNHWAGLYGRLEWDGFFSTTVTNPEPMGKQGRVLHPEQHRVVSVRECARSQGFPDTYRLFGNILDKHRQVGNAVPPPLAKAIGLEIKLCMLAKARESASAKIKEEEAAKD

[2] = molecular target: T2, DNA (cytosine-5)-methyltransferase 3A (Homo sapiens, UniProt Q9Y6K1); assay: Inhibition of DNMT3A (unknown origin) preincubated for 15 mins followed by substrate and [3H-SAM] addition and measured after 60 mins by microbeta analysis
T2 sequence (Q9Y6K1 whole entry, looked up): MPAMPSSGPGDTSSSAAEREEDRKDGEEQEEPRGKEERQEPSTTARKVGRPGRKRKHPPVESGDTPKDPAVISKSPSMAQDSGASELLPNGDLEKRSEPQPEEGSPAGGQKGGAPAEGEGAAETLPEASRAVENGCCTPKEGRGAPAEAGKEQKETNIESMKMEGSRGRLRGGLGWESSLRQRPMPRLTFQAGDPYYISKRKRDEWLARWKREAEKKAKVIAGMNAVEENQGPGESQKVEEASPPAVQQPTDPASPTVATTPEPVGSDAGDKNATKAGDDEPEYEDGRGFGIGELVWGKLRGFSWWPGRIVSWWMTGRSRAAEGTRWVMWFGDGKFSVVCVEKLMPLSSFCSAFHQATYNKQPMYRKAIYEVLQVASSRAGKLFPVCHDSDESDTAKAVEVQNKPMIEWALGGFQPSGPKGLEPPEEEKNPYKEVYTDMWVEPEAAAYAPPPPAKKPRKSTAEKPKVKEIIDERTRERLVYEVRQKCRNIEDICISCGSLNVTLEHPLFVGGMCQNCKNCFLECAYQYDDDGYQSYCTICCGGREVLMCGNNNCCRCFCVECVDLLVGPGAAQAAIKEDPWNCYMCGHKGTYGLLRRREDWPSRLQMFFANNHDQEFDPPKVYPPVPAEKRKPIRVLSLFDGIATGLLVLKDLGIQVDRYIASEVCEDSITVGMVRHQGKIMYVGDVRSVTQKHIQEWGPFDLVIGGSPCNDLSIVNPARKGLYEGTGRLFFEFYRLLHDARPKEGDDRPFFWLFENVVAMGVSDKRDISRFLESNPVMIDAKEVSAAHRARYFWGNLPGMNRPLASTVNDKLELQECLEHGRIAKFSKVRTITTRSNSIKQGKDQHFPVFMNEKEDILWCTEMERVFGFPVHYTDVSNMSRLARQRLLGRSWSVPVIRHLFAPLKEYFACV

[3] = molecular target: T3, Histone-lysine N-methyltransferase EHMT2 (Homo sapiens, UniProt Q96KQ7); assay: Inhibition of G9a (unknown origin) preincubated for 15 mins followed by substrate and [3H-SAM] addition and measured after 60 mins by microbeta analysis
T3 sequence (Q96KQ7 whole entry): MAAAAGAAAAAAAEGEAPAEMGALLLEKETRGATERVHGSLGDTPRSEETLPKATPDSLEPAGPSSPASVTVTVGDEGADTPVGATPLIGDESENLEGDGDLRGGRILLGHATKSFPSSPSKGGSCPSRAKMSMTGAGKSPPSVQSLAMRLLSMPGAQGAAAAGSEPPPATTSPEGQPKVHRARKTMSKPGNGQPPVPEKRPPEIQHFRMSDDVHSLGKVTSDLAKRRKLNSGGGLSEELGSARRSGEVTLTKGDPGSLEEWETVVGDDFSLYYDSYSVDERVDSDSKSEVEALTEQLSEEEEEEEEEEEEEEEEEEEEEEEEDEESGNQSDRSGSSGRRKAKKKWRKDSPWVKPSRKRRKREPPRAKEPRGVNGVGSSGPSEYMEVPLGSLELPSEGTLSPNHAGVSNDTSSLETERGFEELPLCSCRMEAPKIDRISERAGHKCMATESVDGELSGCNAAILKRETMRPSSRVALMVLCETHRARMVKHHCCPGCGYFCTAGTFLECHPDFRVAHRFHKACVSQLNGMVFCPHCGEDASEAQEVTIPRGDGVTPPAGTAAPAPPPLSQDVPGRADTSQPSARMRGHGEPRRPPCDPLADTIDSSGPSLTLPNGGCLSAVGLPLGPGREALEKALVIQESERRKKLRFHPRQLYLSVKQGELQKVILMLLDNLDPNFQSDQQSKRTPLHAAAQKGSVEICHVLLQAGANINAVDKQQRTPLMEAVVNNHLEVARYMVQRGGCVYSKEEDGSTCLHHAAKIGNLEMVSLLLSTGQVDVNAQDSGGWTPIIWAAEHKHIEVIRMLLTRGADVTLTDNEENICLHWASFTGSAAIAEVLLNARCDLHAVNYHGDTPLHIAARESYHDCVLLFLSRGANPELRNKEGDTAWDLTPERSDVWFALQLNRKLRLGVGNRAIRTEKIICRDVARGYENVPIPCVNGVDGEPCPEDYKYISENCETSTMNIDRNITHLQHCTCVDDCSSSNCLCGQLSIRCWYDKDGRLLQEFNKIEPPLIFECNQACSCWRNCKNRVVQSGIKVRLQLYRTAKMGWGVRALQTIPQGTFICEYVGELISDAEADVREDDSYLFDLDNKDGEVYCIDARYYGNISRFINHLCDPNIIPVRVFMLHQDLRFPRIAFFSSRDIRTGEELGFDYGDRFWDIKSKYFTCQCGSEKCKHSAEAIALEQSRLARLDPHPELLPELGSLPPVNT

[4] = system: MV4-11; assay: Antiproliferative activity against human MV4-11 cells assessed as inhibition of cell viability measured after 72 hrs by MTT assay; type: functional, cell-based; conditions: MV4-11, 72 h
[5] = system: U-937; assay: Antiproliferative activity against human U-937 cells assessed as inhibition of cell viability measured after 72 hrs by MTT assay; type: functional, cell-based; conditions: U-937, 72 h
[6] = molecular target: T4, Histone-lysine N-methyltransferase EHMT2 (Homo sapiens) (UniProt Q96KQ7); assay: Inhibition of G9a (unknown origin) at 5 uM preincubated for 15 mins followed by substrate and [3H-SAM] addition and measured after 60 mins by microbeta analysis relative to control; conditions: time 75.0 min
T4 sequence (whole entry): T3 sequence (Q96KQ7 whole entry)

[7] = molecular target: T5, DNA (cytosine-5)-methyltransferase 3B (Homo sapiens, UniProt Q9UBC3); assay: Inhibition of DNMT3B (unknown origin) preincubated for 15 mins followed by substrate and [3H-SAM] addition and measured after 60 mins by microbeta analysis
[8] = molecular target: T2, DNA (cytosine-5)-methyltransferase 3A; assay: Inhibition of DNMT3A (unknown origin) at 5 uM preincubated for 15 mins followed by substrate and [3H-SAM] addition and measured after 60 mins by microbeta analysis relative to control; conditions: time 75.0 min
[9] = molecular target: T1, DNA (cytosine-5)-methyltransferase 1; assay: Inhibition of DNMT1 (unknown origin) preincubated for 15 mins followed by substrate and [3H-SAM] addition and measured after 60 mins by microbeta analysis
[10] = molecular target: T5, DNA (cytosine-5)-methyltransferase 3B; assay: Inhibition of DNMT3B (unknown origin) at 5 uM preincubated for 15 mins followed by substrate and [3H-SAM] addition and measured after 60 mins by microbeta analysis relative to control; conditions: time 75.0 min
[11] = system: HeLa; assay: Antiproliferative activity against human HeLa cells assessed as inhibition of cell viability measured after 72 hrs by MTT assay; type: functional, cell-based
[12] = system: HCT-116; assay: Antiproliferative activity against human HCT-116 cells assessed as inhibition of cell viability measured after 72 hrs by MTT assay; type: functional, cell-based; conditions: HCT-116, 72 h
[13] = system: MOLM-13; assay: Antiproliferative activity against human MOLM-13 cells assessed as inhibition of cell viability measured after 72 hrs by MTT assay; type: functional, cell-based; conditions: MOLM-13, 72 h
[14] = system: HT-29; assay: Antiproliferative activity against human HT-29 cells assessed as inhibition of cell viability measured after 72 hrs by MTT assay; type: functional, cell-based; conditions: HT-29, 72 h
[15] = system: THP-1; assay: Antiproliferative activity against human THP-1 cells assessed as inhibition of cell viability measured after 72 hrs by MTT assay; type: functional, cell-based; conditions: THP-1, 72 h
[16] = system: RPMI-8226; assay: Antiproliferative activity against human RPMI-8226 cells assessed as inhibition of cell viability measured after 72 hrs by MTT assay; type: functional, cell-based; conditions: RPMI-8226, 72 h
[17] = system: MDA-MB-231; assay: Antiproliferative activity against human MDA-MB-231 cells assessed as inhibition of cell viability measured after 72 hrs by MTT assay; type: functional, cell-based; conditions: MDA-MB-231, 72 h
[18] = system: A549; assay: Antiproliferative activity against human A549 cells assessed as inhibition of cell viability measured after 72 hrs by MTT assay; type: functional, cell-based; conditions: A549, 72 h
[19] = system: HepG2; assay: Antiproliferative activity against human HepG2 cells assessed as inhibition of cell viability measured after 72 hrs by MTT assay; type: functional, cell-based; conditions: HepG2, 72 h
[20] = molecular target: T1, DNA (cytosine-5)-methyltransferase 1; assay: Inhibition of DNMT1 (unknown origin) at 1 uM preincubated for 15 mins followed by substrate and [3H-SAM] addition and measured after 60 mins by microbeta analysis relative to control; conditions: time 75.0 min
[21] = system: NCI-H1299; assay: Antiproliferative activity against human NCI-H1299 cells assessed as inhibition of cell viability measured after 72 hrs by MTT assay; type: functional, cell-based; conditions: NCI-H1299, 72 h
[22] = Antitumor activity against human TMD8 cells harbouring TP53 mutant xenografted in mouse model assessed as body weight change at 12.5 mg/kg, po QD relative to control; type: functional
[23] = Antitumor activity against human TMD8 cells harbouring […] xenografted in mouse model assessed as body weight change at 12.5 mg/kg, po QD relative to control; type: functional
[24] = Antitumor activity against human TMD8 cells harbouring TP53 mutant xenografted in mouse model assessed as tumor inhibition rate at 12.5 mg/kg, po QD relative to control; type: functional; parameters: scale not given: the % may be the effect or the level left
[25] = Antitumor activity against human TMD8 cells harbouring […] xenografted in mouse model assessed as tumor inhibition rate at 12.5 mg/kg, po QD relative to control; type: functional; parameters: scale not given: the % may be the effect or the level left
[26] = system: U2932; assay: Antiproliferative activity against human U2932 cells assessed as inhibition of cell viability measured after 72 hrs by MTT assay; type: functional, cell-based; conditions: U2932, 72 h
[27] = molecular target: T1, DNA (cytosine-5)-methyltransferase 1; assay: Inhibition of DNMT1 in human DOHH-2 cells assessed as inhibition of H3K9 methylation level incubated for 48 hrs by Western blot analysis; type: cell-based; conditions: dose 10-1000 nM
[28] = system: Jurkat; assay: Antiproliferative activity against human Jurkat cells assessed as inhibition of cell viability measured after 72 hrs by MTT assay; type: functional, cell-based
[29] = system: TMD8; assay: Antiproliferative activity against human TMD8 cells assessed as inhibition of cell viability measured after 72 hrs by MTT assay; type: functional, cell-based; conditions: TMD8, 72 h
[30] = molecular target: T1, DNA (cytosine-5)-methyltransferase 1; assay: Inhibition of DNMT1 in human DOHH-2 cells assessed as inhibition of 5-methylcytosine level at 10 to 1000 nM incubated for 48 hrs by Western blot analysis; type: cell-based; conditions: dose 10-1000 nM
[31] = molecular target: T1, DNA (cytosine-5)-methyltransferase 1; assay: Inhibition of DNMT1 in human DOHH-2 cells assessed as inhibition of DNA methylation incubated for 48 hrs by Western blot analysis; type: cell-based; conditions: dose 10-1000 nM
[32] = system: DOHH-2; assay: Antiproliferative activity against human DOHH-2 cells assessed as inhibition of cell viability measured after 72 hrs by MTT assay; type: functional, cell-based; conditions: DOHH-2, 72 h

Structure (SMILES) | inhibition [1] | IC50 [2] | IC50 [3] | IC50 [4] | IC50 [5] | inhibition [6] | IC50 [7] | inhibition [8] | IC50 [9] | inhibition [10] | inhibition [20] | also measured
COc1ccc(-c2nc(NC3CCN(C)CC3)c3ccn(CCCN4CCCC4)c3n2)cn1 | 49% | 18.3 µM | > 20 µM | 10.2 µM | 4.53 µM | 1% | > 20 µM | 15% | 1.9 µM | 1.2% |  | 
Cc1cc(Nc2ccc(NC(=O)c3ccc(Nc4ccnc5ccccc45)cc3)cc2)nc(N)n1 | 3.4% |  |  | 0.98 µM | 4.12 µM |  | 1.91 µM |  |  |  | 77% | IC50 [11]: 21.6 µM; IC50 [12]: 0.82 µM; IC50 [13]: 1.19 µM; IC50 [14]: 0.49 µM; IC50 [15]: 2.47 µM; IC50 [16]: 1.34 µM; IC50 [17]: 5.39 µM; IC50 [18]: 9.5 µM; IC50 [19]: 11.6 µM; IC50 [21]: 12.2 µM
Nc1cc(F)ccc1NC(=O)c1ccc(CNC(=O)/C=C/c2cccnc2)cc1 [TUCIDINOSTAT] |  |  |  |  |  |  |  |  |  |  |  | Activity [22]: -2.3%; Activity [23]: 2.5%; Activity [24]: 61%; Activity [25]: 51.5%
COc1cc2c(NC3CCN(C)CC3)cc(-c3ccc(C)o3)nc2cc1OCCCN1CCCC1 |  |  |  |  |  |  |  |  |  |  |  | IC50 [26]: 2.13 µM; inhibition [27]: Dose-dependent-effect; IC50 [28]: 0.41 µM; IC50 [29]: 0.19 µM; inhibition [30]: Active; inhibition [31]: Dose-dependent-effect; IC50 [32]: 0.23 µM
CN1CCN(c2cc(NCC3CCN(C(=O)NC(C)(C)C)CC3)c3cnn(CCCN4CCOCC4)c3c2)CC1 |  |  |  | 19.4 µM |  |  |  |  |  |  | 0.91% | 
CN1CCC(Nc2nc(-c3ccc(N)nc3)nc3c2ccn3CCCN2CCCC2)CC1 | 52% | 16.7 µM | > 20 µM | 18.3 µM | 26.8 µM | -1.1% | > 20 µM | 17% | 1.62 µM | 0.6% |  | 
